Measured values reported in ChEMBL document CHEMBL6078713, “Synthesis and mechanistic studies of 4-aminoquinoline-Isatin molecular hybrids and Schiff's bases as promising antimicrobial agents” (Eur J Med Chem, 2025).

System: Pseudomonas aeruginosa
Experiment: Antibacterial activity against Pseudomonas aeruginosa MTCC 2453 assessed as inhibition of bacterial growth at 200 ug/ml incubated overnight by spectrophotometry relative to control
Format: functional

## Clc1ccc2c(NCC/N=C/c3ccc4ccccc4n3)ccnc2c1
  inhibition at 200 µg/mL: 100%
